From patent US20240417435A1, “DEFENSIN-DERIVED PEPTIDE WITH ANTIBACTERIAL ACTIVITY ALSO AGAINST MULTI-ANTIBIOTIC-RESISTANT BACTERIA” (priority 2021, published 2024)

Legend:
[1] = tested on: HUVEC cells
Description: (§6) Parental HT-1080, HUVEC, SH-SY5Y human fibroblasts (HF) and A549 cells from Culture Cell Lines Facility CEINGE Biotecnologie Avanzate s.c.ar.l., Naples, Italy, and HeLa cells (ATCC CCL-2) stored in liquid nitrogen, were thawed by stirring the vials gently for 2 minutes in a water bath at 37° C. […]
(§7) The cells were incubated for 24 hours at 37° C. in 5% CO2 to allow them to grow and form a single layer in the flask. Cells grown to 80-95% confluency were washed with PBS, treated with 3 mL of trypsin-EDTA 1× solution, diluted, counted and seeded (4×10^3 cells/200 μl per well) in 96-well tissue-culture plates for 24 h in triplicate. The reduction in cell proliferation was evaluated with the 3-[4,5-dimethylthiazol-2-yl]-2,5-diphenyltetrazolium bromide (MTT) assay, which measures metabolic changes. […] After incubation, the presence of violet crystals, which normally indicate metabolisation of MTT, was evaluated. […] The specific stain eluted was measured with a spectrophotometer (550 nm). […] The cell inhibition percentage was determined with the following formula:
(§8) % cell inhibition=100−(Absorbance of treated cells/Absorbance of control cells)×100. […]
(§9) The mean percentage cell inhibition values for each cell line at different peptide γ2 concentrations compared with the untreated cells were analysed with One-way ANOVA.

[2] = tested on: HeLa cells
Description: as §6, §7, §8, §9

[3] = tested on: P. aeruginosa ATCC 27853; test: SYTOX Green absorption assay (membrane permeabilisation); assay type: cell-based, Pseudomonas aeruginosa
Description: (§1) The effect of peptide γ2 on the membrane integrity of S. aureus ATCC 6538 and P. aeruginosa ATCC 27853 was evaluated by measuring the extent of intracellular accumulation of SYTOX green (Juba M L, et al. Biochim Biophys Acta. 2015; 1848 (5): 1081-91). The cells were harvested halfway through the log phase, washed, and resuspended in 10 mM of phosphate buffer. The final density was adjusted to 5×10^7 CFU/mL. The cells were then treated with peptide γ2 (0.625, 1.25, 2.5, 12.5, 25 μM) in the presence of 200 nM SYTOX green (Invitrogen). The fluorescence increase of SYTOX green, a direct measurement of the degree of membrane permeabilisation, was monitored with a fluorescence spectrophotometer. The excitation and emission wavelengths used were 503 nm and 523 nm respectively. 5

[4] = tested on: HT-1080 cells
Description: as §6, §7, §8, §9

[5] = tested on: P. aeruginosa ATCC 27853 biofilm; test: Biofilm formation and maturation, crystal violet; assay type: cell-based, Pseudomonas aeruginosa; details: concentrations slightly higher than MIC, dose-dependent, maximum activity at 125 μM
Description: (§2) The biofilm formation test for S. aureus ATCC 6538 and P. aeruginosa ATCC 27853 was conducted in 96-well plates, as previously reported (Merritt J H, Kadouri D E, O'Toole G A. Growing and analyzing static biofilms. Curr Protoc Microbiol. 2005; Chapter 1: Unit 1B.1.)
(§3) Briefly, the bacteria from overnight cultures were diluted and grown to 0.5 McFarland. The bacteria were diluted 1:100 and plated in each well containing 100 μL of BHI broth. To evaluate the impact of peptide γ2 on biofilm formation, the medium was supplemented with various concentrations of peptide (2.5, 12.5, 25 and 125 μM) and incubated overnight. To evaluate biofilm maturation, the bacteria of the cultures grown overnight were diluted 1:1000, and 5 μL of said bacterial suspensions was added to each well, containing 100 μL of BHI broth, and left to grow overnight. The medium was then removed and replaced with fresh medium containing various peptide concentrations (2.5, 12.5 and 125 μM). At the end of incubation, the medium was removed; the biofilms were washed twice with PBS and stained with crystal violet (1%) for 30 minutes, then resuspended in 200 μL of ethanol. The negative controls were bacteria incubated with medium only. The positive controls were bacteria incubated with medium supplemented with 0.42 μM gentamicin.

[6] = tested on: S. aureus ATCC 6538; test: SYTOX Green absorption assay (membrane permeabilisation); assay type: cell-based, Staphylococcus aureus
Description: as §1

[7] = tested on: S. aureus ATCC 6538 biofilm; test: Biofilm formation by LIVE/DEAD imaging; assay type: cell-based, Staphylococcus aureus; details: 24 h static culture
Description: (§4) The formation of S. aureus ATCC 6538 and P. aeruginosa ATCC 27853 biofilms was also evaluated by imaging. The medium was then supplemented with various peptide concentrations (2.5, 12.5 and 25 μM) and incubated overnight, and the biofilms were stained with a FilmTracer LIVE/DEAD biofilm viability kit (Invitrogen) according to the manufacturer's instructions. The images were acquired with Cell Discoverer 7, Zeiss.

[8] = tested on: HT-1080 cells; test: Cell migration assay in Boyden chambers; assay type: cell-based
Description: (§5) Cell migration assays were conducted as previously described (Bifulco K et al., Mol Cancer There 2013; 2:1981-93), using Boyden chambers and polyvinylpyrrolidone-free polycarbonate filters with 8 μm pores inserted between a lower and upper compartment. Briefly, the cell suspension (1×10^5 viable cells/mL of serum-free medium) was seeded in each upper chamber. The lower chambers were filled with DMEM only, DMEM containing 10 nM N-formyl-methionyl-leucylphenylalanine peptide (fMLF), as positive control, or increasing peptide γ2 concentration. Incubation was conducted for 4 h at 37° C. in air humidified with 5% CO2. At the end of the assay, the cells on the lower surface of the filter were fixed with ethanol and stained with haematoxylin, and 10 random fields/filter were counted with a 200× magnification. The extent of cell migration was expressed as a percentage of baseline cell migration evaluated in the absence of chemo-attractants, taken as 100% (CTRL).

[9] = tested on: A549 cells; test: Cell migration assay in Boyden chambers; assay type: cell-based
Description: as §5

[10] = tested on: HUVEC endothelial cells; test: Cell migration assay in Boyden chambers; assay type: cell-based
Description: as §5

[11] = tested on: peripheral blood mononuclear cells (PBMC); test: Cytokine secretion measurement (ProcartaPlex/Luminex); assay type: cell-based, human; details: PBMCs from healthy donors; 1.25 and 12.5 μM; 18 hours
Description: Supernatants for cytokine evaluation were harvested from peripheral blood mononuclear cell cultures (PBMCs) and analysed with the Invitrogen ProcartaPlex bead-based immunoassay (Invitrogen, Thermo Fisher Scientific) using the Luminex instrument platform (Luminex 200, Luminex Corporation), according to the manufacturer's instructions. xPONENT 3.1 software (Luminex) was used for acquisition and analysis of the samples.

[12] = tested on: S. aureus ATCC 6538 biofilm; test: Biofilm formation and maturation, crystal violet; assay type: cell-based, Staphylococcus aureus; details: concentrations slightly higher than MIC, dose-dependent, maximum activity at 125 μM
Description: as §2, §3

[13] = tested on: human fibroblasts (HF)
Description: as §6, §7, §8, §9

[14] = tested on: A549 cells
Description: as §6, §7, §8, §9

[15] = tested on: P. aeruginosa ATCC 27853 biofilm; test: Biofilm formation by LIVE/DEAD imaging; assay type: cell-based, Pseudomonas aeruginosa; details: 24 h static culture
Description: as §4

Ac-CLPKRRQIGKSSTRGRKSCKK-NH2 (not fully specified (bridges); printed as Ac-CLPKRRQIGKSSTRGRKSCKK-NH2; also: oxidised (disulfide) or reduced form, both stated) [peptide γ2, defensin (hBD3 γ-core)-derived peptide]
reduction of cell viability [1]: about 20%
cell viability [2]: viability remained high
cell viability compared with the control cells ([2]; human, HeLa cells, 6 h, 40 µM): 97%
incubation time at which increased influx of SYTOX Green was seen [3]: 15 min
dose at which the peptide already effectively permeabilised the bacteria ([3]; SYTOX Green, dose-dependent): 1.25 µM
cell viability [4]: viability remained high
biofilm formation [5]: significantly inhibited
biofilm maturation [5]: significantly inhibited
incubation time at which increased influx of SYTOX Green was evident [6]: 40 min
dose at which the peptide already effectively permeabilised the bacteria ([6]; SYTOX Green, dose-dependent): 1.25 µM
smallest dose at which inhibition of biofilm formation was already evident [7]: 2.5 µM
directional migration, % of the baseline cell migration ([8]; 50 μM, 4 h): 158%
directional cell migration ([8]; 100 μM versus 50 μM): did not further increase directional cell migration
chemotactic effect ([8]; low concentrations): slight chemotactic effect
directional migration, % of the baseline cell migration ([9]; 50 μM, 4 h): 169%
directional cell migration ([9]; 100 μM versus 50 μM): did not further increase directional cell migration
chemotactic effect ([9]; low concentrations): slight chemotactic effect
directional cell migration ([10]; HUVEC, 100 μM versus 50 μM): did not further increase directional cell migration
chemotactic effect ([10]; HUVEC, low concentrations): slight chemotactic effect
directional migration, % of the baseline cell migration ([10]; endothelial cells (HUVEC), 50 μM, 4 h): 156%
IL-1 secretion [11]: up-regulated
IL-6 secretion [11]: up-regulated
IL-9 secretion [11]: up-regulated
INF-γ secretion [11]: up-regulated
biofilm formation [12]: significantly inhibited
biofilm maturation [12]: significantly inhibited
reduction of cell viability [13]: about 20%
reduction of cell viability [14]: about 20%
smallest dose at which inhibition of biofilm formation was already evident [15]: 2.5 µM
